Measurements as given in patent US11072612B2, “NLRP3 modulators” (INNATE TUMOR IMMUNITY, INC., priority 2016, dated 2021).

Key:
Type in all cases: cell-based
TLR8 = molecular target: T1, TLR8 (Homo sapiens, UniProt Q9NR97); assay: TLR8 EC50 assay; conditions: Table 2
T1 sequence (Q9NR97 27-1041): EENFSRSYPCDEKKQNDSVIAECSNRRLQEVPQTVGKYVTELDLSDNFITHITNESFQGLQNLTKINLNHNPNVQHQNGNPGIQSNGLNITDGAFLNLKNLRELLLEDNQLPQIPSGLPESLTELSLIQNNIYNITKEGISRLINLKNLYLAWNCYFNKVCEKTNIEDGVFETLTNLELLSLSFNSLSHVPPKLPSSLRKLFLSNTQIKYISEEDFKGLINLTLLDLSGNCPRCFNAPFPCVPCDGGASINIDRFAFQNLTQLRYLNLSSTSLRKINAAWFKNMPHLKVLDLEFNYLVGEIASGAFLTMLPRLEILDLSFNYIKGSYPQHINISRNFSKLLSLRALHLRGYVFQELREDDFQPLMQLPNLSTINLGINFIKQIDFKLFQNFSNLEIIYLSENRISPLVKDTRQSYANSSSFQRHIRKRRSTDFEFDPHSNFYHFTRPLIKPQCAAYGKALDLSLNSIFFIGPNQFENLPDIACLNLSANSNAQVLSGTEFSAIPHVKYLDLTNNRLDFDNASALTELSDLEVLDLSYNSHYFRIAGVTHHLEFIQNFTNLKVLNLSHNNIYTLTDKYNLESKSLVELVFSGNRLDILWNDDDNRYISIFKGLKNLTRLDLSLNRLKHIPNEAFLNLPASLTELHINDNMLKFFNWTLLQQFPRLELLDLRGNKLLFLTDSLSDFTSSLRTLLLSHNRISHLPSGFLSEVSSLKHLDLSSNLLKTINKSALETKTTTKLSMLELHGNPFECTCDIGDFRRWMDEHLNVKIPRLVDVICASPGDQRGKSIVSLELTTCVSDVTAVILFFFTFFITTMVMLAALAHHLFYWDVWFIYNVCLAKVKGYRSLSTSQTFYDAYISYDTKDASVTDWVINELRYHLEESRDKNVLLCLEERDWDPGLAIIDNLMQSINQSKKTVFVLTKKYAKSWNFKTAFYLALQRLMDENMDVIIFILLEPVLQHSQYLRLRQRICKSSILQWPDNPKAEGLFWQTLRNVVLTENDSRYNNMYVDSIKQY

TLR7 = molecular target: T2, TLR7 (Homo sapiens, UniProt Q9NYK1); assay: TLR7 EC50 assay; conditions: Table 2
T2 sequence (Q9NYK1 27-1049): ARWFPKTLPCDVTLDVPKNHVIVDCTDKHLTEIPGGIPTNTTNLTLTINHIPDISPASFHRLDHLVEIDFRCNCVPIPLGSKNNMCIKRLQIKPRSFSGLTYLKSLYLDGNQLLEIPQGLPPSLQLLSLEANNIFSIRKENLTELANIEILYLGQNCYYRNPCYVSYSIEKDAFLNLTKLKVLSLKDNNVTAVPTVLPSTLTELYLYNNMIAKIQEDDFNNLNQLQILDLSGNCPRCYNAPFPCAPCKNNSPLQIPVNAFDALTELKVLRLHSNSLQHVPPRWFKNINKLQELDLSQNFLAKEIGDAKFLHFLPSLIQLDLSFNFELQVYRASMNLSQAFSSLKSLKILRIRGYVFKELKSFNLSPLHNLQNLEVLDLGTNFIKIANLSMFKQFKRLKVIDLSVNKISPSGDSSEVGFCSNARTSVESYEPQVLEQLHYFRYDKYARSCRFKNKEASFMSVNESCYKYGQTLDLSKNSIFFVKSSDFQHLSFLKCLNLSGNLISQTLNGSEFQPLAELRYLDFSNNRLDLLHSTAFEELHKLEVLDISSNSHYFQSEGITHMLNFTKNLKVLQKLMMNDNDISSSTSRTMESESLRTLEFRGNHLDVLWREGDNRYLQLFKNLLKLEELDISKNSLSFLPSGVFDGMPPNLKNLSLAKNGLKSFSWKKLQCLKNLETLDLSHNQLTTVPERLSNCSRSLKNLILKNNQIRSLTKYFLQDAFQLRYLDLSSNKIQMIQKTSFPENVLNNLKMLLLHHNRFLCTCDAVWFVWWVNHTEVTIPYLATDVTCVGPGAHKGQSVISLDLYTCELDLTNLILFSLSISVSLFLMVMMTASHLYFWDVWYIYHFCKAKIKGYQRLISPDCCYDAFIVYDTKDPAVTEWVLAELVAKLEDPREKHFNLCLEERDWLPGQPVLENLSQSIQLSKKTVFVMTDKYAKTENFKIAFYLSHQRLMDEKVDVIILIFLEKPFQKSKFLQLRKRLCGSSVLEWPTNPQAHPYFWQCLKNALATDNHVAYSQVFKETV

hNLRP3 = molecular target: T3, hNLRP3 (Homo sapiens, UniProt Q96P20); assay: hNLRP3 agonist assay: IL-1β production in PMA-differentiated THP-1 cells (ELISA); conditions: Table 2, 4 hours, IL-1β by ELISA
T3 construct: THP-1 cells were purchased from the American Type Culture Collection; host or cells: THP-1 cells, PMA-differentiated
T3 sequence (Q96P20 whole entry): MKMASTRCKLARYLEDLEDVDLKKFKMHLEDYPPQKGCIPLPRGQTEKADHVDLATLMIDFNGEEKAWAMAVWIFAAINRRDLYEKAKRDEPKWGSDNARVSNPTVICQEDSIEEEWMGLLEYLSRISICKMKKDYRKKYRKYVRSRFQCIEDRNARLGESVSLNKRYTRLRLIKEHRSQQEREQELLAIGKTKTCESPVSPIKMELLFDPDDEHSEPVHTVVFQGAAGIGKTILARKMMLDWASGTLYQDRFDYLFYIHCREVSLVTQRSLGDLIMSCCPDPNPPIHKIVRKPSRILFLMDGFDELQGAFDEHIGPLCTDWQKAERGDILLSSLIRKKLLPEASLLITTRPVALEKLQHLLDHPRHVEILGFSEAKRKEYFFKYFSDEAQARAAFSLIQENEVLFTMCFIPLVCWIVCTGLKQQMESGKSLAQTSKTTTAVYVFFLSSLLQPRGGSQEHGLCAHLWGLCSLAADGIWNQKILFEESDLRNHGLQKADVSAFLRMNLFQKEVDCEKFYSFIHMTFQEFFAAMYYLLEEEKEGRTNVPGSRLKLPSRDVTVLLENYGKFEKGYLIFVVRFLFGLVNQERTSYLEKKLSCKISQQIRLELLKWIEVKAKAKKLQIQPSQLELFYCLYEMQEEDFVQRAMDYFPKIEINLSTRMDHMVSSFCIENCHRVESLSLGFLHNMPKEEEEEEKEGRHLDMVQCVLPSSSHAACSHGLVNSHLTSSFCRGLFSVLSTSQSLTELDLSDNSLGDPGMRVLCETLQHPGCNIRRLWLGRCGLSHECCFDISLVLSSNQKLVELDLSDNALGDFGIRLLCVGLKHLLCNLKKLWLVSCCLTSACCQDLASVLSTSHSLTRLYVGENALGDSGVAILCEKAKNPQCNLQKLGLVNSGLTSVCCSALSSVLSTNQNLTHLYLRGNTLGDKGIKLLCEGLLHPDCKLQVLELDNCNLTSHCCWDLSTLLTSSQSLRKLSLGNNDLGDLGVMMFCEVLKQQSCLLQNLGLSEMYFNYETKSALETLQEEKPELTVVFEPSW
Description: THP-1 cells were purchased from the American Type Culture Collection and sub-cultured according to instructions from the supplier. Prior to experiments, cells were cultured in RPMI 1640 containing 10% heat inactivated FBS, penicillin (100 units/ml) and streptomycin (100 μg/ml), and maintained in log phase prior to experimental setup. Prior to the experiment THP-1 were treated with PMA (Phorbol 12-myristate 13-acetate) (10 μg/ml) for 24 hours. The day of the experiment the media was removed and attaching cells were treated with trypsin for 2 minutes, cells were then collected, washed with PBS (phosphate buffer saline), spin down, resuspended in 2% heat inactivated FBS with RPMI at a concentration of 1×10^6 cells/ml, and 100 μl was plated in a 96 well plate. Cells were incubated with compounds for 4 hours. Cell free supernatant was collected and the production of IL-1β was evaluated by ELISA. Compounds were dissolved in dimethyl sulfoxide (DMSO) and added to the culture medium to achieve desired concentration (e.g. 100, 30, 10, 3, 1, 0.3 or 0.1 μM). A vehicle only control was run concurrently with each experiment. Final DMSO concentration was 1%.

| EC50 (TLR8) | EC50 (TLR7) | EC50 (hNLRP3) | Structure (SMILES) |
| --- | --- | --- | --- |
| > 100 µM | > 100 µM | 1 to 20 µM | Nc1nc2cc(-c3cccnc3)ccc2c2[nH]c(CCCO)nc12 [Compound 147, 3-(4-amino-7-pyridin-3-yl-1H-imidazo[4,5-c]quinolin-2-yl)propan-1-ol] |
| > 100 µM | > 100 µM | 1 to 20 µM | Nc1nc2cc(-c3ccncc3)ccc2c2[nH]c(CCCO)nc12 [Compound 149] |
| > 100 µM | > 100 µM | 1 to 20 µM | Cc1cc(-c2ccc3c(c2)nc(N)c2nc(CCCO)[nH]c23)n(C)n1 [Compound 151, 3-[4-amino-7-(2,5-dimethylpyrazol-3-yl)-1H-imidazo[4,5-c]quinolin-2-yl]propan-1-ol] |
| > 100 µM | > 100 µM | 1 to 20 µM | CCCn1cc(-c2ccc3c(c2)nc(N)c2nc(CCCO)[nH]c23)cn1 [Compound 153, 3-[4-amino-7-(1-propylpyrazol-4-yl)-1H-imidazo[4,5-c]quinolin-2-yl]propan-1-ol] |
| > 100 µM | > 100 µM | 1 to 20 µM | Cc1ncc(-c2ccc3c(c2)nc(N)c2nc(CCCO)[nH]c23)cn1 [Compound 155, 3-[4-amino-7-(2-methylpyrimidin-5-yl)-1H-imidazo[4,5-c]quinolin-2-yl]propan-1-ol] |
| > 100 µM | 20 to 100 µM | 1 to 20 µM | CC(C)c1ccc2c(c1)nc(N)c1nc(CCCO)[nH]c12 [Compound 159, 3-(4-amino-7-propan-2-yl-1H-imidazo[4,5-c]quinolin-2-yl)propan-1-ol] |
| > 100 µM | 20 to 100 µM | ≤ 1 µM | CCCc1ccc2c(c1)nc(N)c1nc(CCCO)[nH]c12 [Compound 160, 3-(4-amino-7-propyl-1H-imidazo[4,5-c]quinolin-2-yl)propan-1-ol] |
| > 100 µM | > 100 µM | ≤ 1 µM | Nc1nc2cc(C3CCCC3)ccc2c2[nH]c(CCCO)nc12 [Compound 161, 3-(4-amino-7-cyclopentyl-1H-imidazo[4,5-c]quinolin-2-yl)propan-1-ol] |
| 20 to 100 µM | 20 to 100 µM | 1 to 20 µM | CCc1ccc2c(c1)nc(N)c1nc(CCCO)[nH]c12 [Compound 162, 3-(4-amino-7-ethyl-1H-imidazo[4,5-c]quinolin-2-yl)propan-1-ol] |
| 20 to 100 µM | 20 to 100 µM | 20 to 100 µM | Nc1nc2cc(Cl)ccc2c2[nH]c(CCCO)nc12 [Compound 165, 3-(4-amino-7-chloro-1H-imidazo[4,5-c]quinolin-2-yl)propan-1-ol] |
| > 100 µM | > 100 µM | > 100 µM | Nc1nc2cc(N3CCCC3)ccc2c2[nH]c(CCCO)nc12 [Compound 166, 3-(4-amino-7-pyrrolidin-1-yl-1H-imidazo[4,5-c]quinolin-2-yl)propan-1-ol] |
| > 100 µM | > 100 µM | > 100 µM | Nc1nc2cc(N3CCCCC3)ccc2c2[nH]c(CCCO)nc12 [Compound 167, 3-(4-amino-7-piperidin-1-yl-1H-imidazo[4,5-c]quinolin-2-yl)propan-1-ol] |

More lines, now with the values behind:

| Structure (SMILES) | EC50 (TLR8) | EC50 (TLR7) | EC50 (hNLRP3) |
| --- | --- | --- | --- |
| Nc1nc2cc(-c3ccccc3)ccc2c2[nH]c(CCCO)nc12 [Compound 145, 3-(4-amino-7-phenyl-1H-imidazo[4,5-c]quinolin-2-yl)propan-1-ol] | > 100 µM | > 100 µM | ≤ 1 µM |
| Nc1nc2cc(-c3cccnc3)ccc2c2[nH]c(CCCOCc3ccccc3)nc12 [Compound 146, 2-(3-phenylmethoxypropyl)-7-pyridin-3-yl-1H-imidazo[4,5-c]quinolin-4-amine] | > 100 µM | > 100 µM | 20 to 100 µM |
| Nc1nc2cc(-c3ccncc3)ccc2c2[nH]c(CCCOCc3ccccc3)nc12 [Compound 148, 2-(3-phenylmethoxypropyl)-7-pyridin-4-yl-1H-imidazo[4,5-c]quinolin-4-amine] | > 100 µM | > 100 µM | 20 to 100 µM |
| Cc1cc(-c2ccc3c(c2)nc(N)c2nc(CCCOCc4ccccc4)[nH]c23)n(C)n1 [Compound 150, 7-(2,5-dimethylpyrazol-3-yl)-2-(3-phenylmethoxypropyl)-1H-imidazo[4,5-c]quinolin-4-amine] | > 100 µM | > 100 µM | > 100 µM |
| CCCn1cc(-c2ccc3c(c2)nc(N)c2nc(CCCOCc4ccccc4)[nH]c23)cn1 [Compound 152, 2-(3-phenylmethoxypropyl)-7-(1-propylpyrazol-4-yl)-1H-imidazo[4,5-c]quinolin-4-amine] | > 100 µM | > 100 µM | 20 to 100 µM |
| Cc1ncc(-c2ccc3c(c2)nc(N)c2nc(CCCOCc4ccccc4)[nH]c23)cn1 [Compound 154, 7-(2-methylpyrimidin-5-yl)-2-(3-phenylmethoxypropyl)-1H-imidazo[4,5-c]quinolin-4-amine] | > 100 µM | > 100 µM | 1 to 20 µM |
| CN(C)c1ncc(-c2ccc3c(c2)nc(N)c2nc(CCCO)[nH]c23)cn1 [Compound 156, 3-[4-amino-7-[2-(dimethylamino)pyrimidin-5-yl]-1H-imidazo[4,5-c]quinolin-2-yl]propan-1-ol] | > 100 µM | > 100 µM | > 100 µM |
| Nc1nc2cc(-c3cccnc3F)ccc2c2[nH]c(CCCOCc3ccccc3)nc12 [Compound 157, 7-(2-fluoropyridin-3-yl)-2-(3-phenylmethoxypropyl)-1H-imidazo[4,5-c]quinolin-4-amine] | > 100 µM | > 100 µM | > 100 µM |
| Nc1nc2cc(-c3cccnc3F)ccc2c2[nH]c(CCCO)nc12 [Compound 158, 3-[4-amino-7-(2-fluoropyridin-3-yl)-1H-imidazo[4,5-c]quinolin-2-yl]propan-1-ol] | > 100 µM | > 100 µM | 1 to 20 µM |
| Nc1nc2cc(Oc3ccccc3)ccc2c2[nH]c(CCCO)nc12 [Compound 163, 3-(4-amino-7-phenoxy-1H-imidazo[4,5-c]quinolin-2-yl)propan-1-ol] | > 100 µM | > 100 µM | 20 to 100 µM |
